Data from patent publication US20240174675A1, “SMALL MOLECULE REGULATORS OF ALVEOLAR TYPE 2 CELL PROLIFERATION FOR THE TREATMENT OF PULMONARY DISEASES” (THE SCRIPPS RESEARCH INSTITUTE, priority 2021, published 2024).
Where a name gives a salt, the structure may show the parent alone.

The compounds below were run against T1, Human DPP4 (Homo sapiens, UniProt P27487) (assay: DPP4 activity assay (DPP4 Activity Assay Kit, fluorescent substrate)). Settings: Human DPP4; read-out: DPP4 inhibition IC50 [nM]).
T1 construct: purchased Sigma-Aldrich MAK088
T1 sequence (P27487 whole entry): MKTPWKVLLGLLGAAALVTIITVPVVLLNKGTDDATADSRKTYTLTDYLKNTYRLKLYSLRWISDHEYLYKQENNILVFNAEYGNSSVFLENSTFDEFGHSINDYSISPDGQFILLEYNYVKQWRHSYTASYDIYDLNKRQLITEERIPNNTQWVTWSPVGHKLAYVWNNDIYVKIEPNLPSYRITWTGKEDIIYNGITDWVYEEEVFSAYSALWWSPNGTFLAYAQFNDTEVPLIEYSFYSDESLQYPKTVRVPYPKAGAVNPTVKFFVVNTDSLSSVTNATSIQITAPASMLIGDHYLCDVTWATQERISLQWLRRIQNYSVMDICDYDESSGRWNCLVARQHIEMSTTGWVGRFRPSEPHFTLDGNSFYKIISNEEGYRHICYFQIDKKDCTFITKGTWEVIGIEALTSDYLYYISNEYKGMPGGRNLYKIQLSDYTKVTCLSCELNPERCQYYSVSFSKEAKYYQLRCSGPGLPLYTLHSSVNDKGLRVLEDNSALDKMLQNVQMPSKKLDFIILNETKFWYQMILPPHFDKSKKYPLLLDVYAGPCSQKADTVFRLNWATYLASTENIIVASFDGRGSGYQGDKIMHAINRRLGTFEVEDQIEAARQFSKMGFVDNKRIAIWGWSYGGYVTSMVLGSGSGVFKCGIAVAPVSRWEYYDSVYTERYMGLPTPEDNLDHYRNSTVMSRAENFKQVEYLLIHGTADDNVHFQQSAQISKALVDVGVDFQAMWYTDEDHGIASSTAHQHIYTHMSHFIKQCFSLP
Assay type: biochemical
Protocol: DPP4 activity assay. Human DPP4 activity assay data were obtained using a DPP4 Activity Assay Kit (Sigma-Aldrich, MAK088) according to the manufacturer's instructions. Briefly, 10 μL of DPP4 Assay Buffer were transferred per well in low volume 384-well plates before transferring 10 μL of test compound dissolved in DPP4 assay buffer. To each well was added 5 μL of Master Reaction Mix containing a fluorescent substrate that becomes fluorescent upon cleavage by the enzyme. Fluorescence intensity measurements were recorded at 1-minute time intervals over the course of 20 minutes using an Envision Multimode Plate Reader (PerkinElmer).

Structure (SMILES)	IC50 [nM]
CCCCCCN(Cc1cn(CCOCCOCCOC23CC4CC(C2)CC([C@H](N)C(=O)N2[C@H](C#N)C[C@@H]5C[C@@H]52)(C4)C3)nn1)C[C@H](O)[C@@H](O)[C@H](O)[C@H](O)CO [Compound 21]	7.7
CCN(Cc1ccc(CNC(=O)OCCO[C@]23CC4C[C@H](C2)C[C@@]([C@H](N)C(=O)N2[C@H](C#N)C[C@@H]5C[C@@H]52)(C4)C3)cc1)C[C@H](O)[C@@H](O)[C@H](O)[C@H](O)CO [Compound 23, 2-(((1R,3S,5S)-3-((S)-1-amino-2-((1S,3S,5S)-3-cyano-2-azabicyclo[3.1.0]hexan-2-yl)-2-oxoethyl)adamantan-1-yl)oxy)ethyl (4-((ethyl((2S,3R,4R,5R)-2,3,4,5,6-pentahydroxyhexyl)amino)methyl)benzyl)carbamate Formate]	4.2
CC#CCn1c(N2CCC[C@@H](N)C2)nc2c1c(=O)n(Cc1ccccc1B(O)O)c(=O)n2C [Compound 27, (R)-(2-((8-(3-aminopiperidin-1-yl)-7-(but-2-yn-1-yl)-3-methyl-2,6-dioxo-2,3,6,7-tetrahydro-1H-purin-1-yl)methyl)phenyl)boronic Acid]	5.3
CC#CCn1c(N2CCC[C@@H](N)C2)nc2c1c(=O)n(Cc1ccc(C(=O)O)cc1)c(=O)n2C [Compound 28]	10.5
CC#CCn1c(N2CCC[C@@H](N)C2)nc2c1c(=O)n(Cc1nc(F)ccc1C(=O)O)c(=O)n2C [Compound 29]	7.1
CC#CCn1c(N2CCC[C@@H](N)C2)nc2c1c(=O)n(Cc1nc(F)ccc1C(=O)OCCCCCC)c(=O)n2C [Compound 30, hexyl (R)-2-((8-(3-aminopiperidin-1-yl)-7-(but-2-yn-1-yl)-3-methyl-2,6-dioxo-2,3,6,7-tetrahydro-1H-purin-1-yl)methyl)-6-fluoronicotinate]	> 1000
CC#CCn1c(N2CCC[C@@H](N)C2)nc2c1c(=O)n(Cc1nc(NC)ccc1C(=O)O)c(=O)n2C [Compound 31]	11.4
CC#CCn1c(N2CCC[C@@H](N)C2)nc2c1c(=O)n(Cc1nc(NC)ccc1C(=O)OCCCCCC)c(=O)n2C [Compound 32, hexyl (R)-2-((8-(3-aminopiperidin-1-yl)-7-(but-2-yn-1-yl)-3-methyl-2,6-dioxo-2,3,6,7-tetrahydro-1H-purin-1-yl)methyl)-6-(methylamino)nicotinate]	> 1000
CC#CCn1c(N2CCC[C@@H](N)C2)nc2c1c(=O)n(Cc1nc(NCCCC)ccc1C(=O)O)c(=O)n2C [Compound 33]	11.4
CC#CCn1c(N2CCC[C@@H](N)C2)nc2c1c(=O)n(Cc1nc(NCCCCCCCn3cc(CN(C[C@H](O)[C@@H](O)[C@H](O)[C@H](O)CO)C[C@H](O)[C@@H](O)[C@H](O)[C@H](O)CO)nn3)ccc1C(=O)OC)c(=O)n2C [Compound 34, methyl 2-((8-((R)-3-aminopiperidin-1-yl)-7-(but-2-yn-1-yl)-3-methyl-2,6-dioxo-2,3,6,7-tetrahydro-1H-purin-1-yl)methyl)-6-((7-(4-((bis((2S,3R,4R,5R)-2,3,4,5,6-pentahydroxyhexyl)amino)methyl)-1H-1,2,3-triazol-1-yl)heptyl)amino)nicotinate]	41
CC#CCn1c(N2CCC[C@@H](N)C2)nc2c1c(=O)n(Cc1nc(NCCCCCCCn3cc(CN(C[C@H](O)[C@@H](O)[C@H](O)[C@H](O)CO)C[C@H](O)[C@@H](O)[C@H](O)[C@H](O)CO)nn3)ccc1C(=O)O)c(=O)n2C [Compound 35, 2-((8-((R)-3-aminopiperidin-1-yl)-7-(but-2-yn-1-yl)-3-methyl-2,6-dioxo-2,3,6,7-tetrahydro-1H-purin-1-yl)methyl)-6-((7-(4-((bis((2S,3R,4R,5R)-2,3,4,5,6-pentahydroxyhexyl)amino)methyl)-1H-1,2,3-triazol-1-yl)heptyl)amino)nicotinic acid]	34.3
CC#CCn1c(N2CCC[C@@H](N)C2)nc2c1c(=O)n(Cc1ccc(Cl)cc1Br)c(=O)n2C [Compound 36]	27
CC#CCn1c(N2CCC[C@@H](N)C2)nc2c1c(=O)n(Cc1ccc(Cl)cc1C(=O)OC(C)C)c(=O)n2C [Compound 37]	700
CC#CCn1c(N2CCC[C@@H](N)C2)nc2c1c(=O)n(Cc1ccc(Cl)cc1C(=O)OCCCCCC)c(=O)n2C [Compound 38, hexyl (R)-2-((8-(3-aminopiperidin-1-yl)-7-(but-2-yn-1-yl)-3-methyl-2,6-dioxo-2,3,6,7-tetrahydro-1H-purin-1-yl)methyl)-5-chlorobenzoate]	> 10000
CC#CCn1c(N2CCC[C@@H](N)C2)nc2c1c(=O)n(Cc1ccc(Cl)cc1C(=O)NCCCCC)c(=O)n2C [Compound 40, (R)-2-((8-(3-aminopiperidin-1-yl)-7-(but-2-yn-1-yl)-3-methyl-2,6-dioxo-2,3,6,7-tetrahydro-1H-purin-1-yl)methyl)-5-chloro-N-pentylbenzamide]	700
CC#CCn1c(N2CCC[C@@H](N)C2)nc2c1c(=O)n(Cc1ccc(Cl)cc1C(=O)OCCOCCn1cc(CN(CCCCCC)C[C@H](O)[C@@H](O)[C@H](O)[C@H](O)CO)nn1)c(=O)n2C [Compound 41, 2-(2-(4-((hexyl(2,3,4,5,6-pentahydroxyhexyl)amino)methyl)-1H-1,2,3-triazol-1-yl)ethoxy)ethyl 2-((8-((R)-3-aminopiperidin-1-yl)-7-(but-2-yn-1-yl)-3-methyl-2,6-dioxo-2,3,6,7-tetrahydro-1H-purin-1-yl)methyl)-5-chlorobenzoate]	> 10000
[N-]=[N+]=NCCOCCOCCOC(=O)c1nc(C(F)(F)F)n2c1CN(C(=O)C[C@H](N)Cc1cc(F)c(F)cc1F)CC2 [Compound 42, 2-(2-(2-azidoethoxy)ethoxy)ethyl (R)-7-(3-amino-4-(2,4,5-trifluorophenyl)butanoyl)-3-(trifluoromethyl)-5,6,7,8-tetrahydroimidazo[1,5-a]pyrazine-1-carboxylate]	0.4
[N-]=[N+]=NCCOCCOCCNC(=O)c1nc(C(F)(F)F)n2c1CN(C(=O)C[C@H](N)Cc1cc(F)c(F)cc1F)CC2 [Compound 43]	1
N[C@@H](CC(=O)N1CCn2c(C(F)(F)F)nc(C(=O)OCCOCCOCCn3cc(CNC[C@H](O)[C@@H](O)[C@H](O)[C@H](O)CO)nn3)c2C1)Cc1cc(F)c(F)cc1F [Compound 44, 2-(2-(2-(4-((((2S,3R,4R,5R)-2,3,4,5,6-pentahydroxyhexyl)amino)methyl)-1H-1,2,3-triazol-1-yl)ethoxy)ethoxy)ethyl 7-((R)-3-amino-4-(2,4,5-trifluorophenyl)butanoyl)-3-(trifluoromethyl)-5,6,7,8-tetrahydroimidazo[1,5-a]pyrazine-1-carboxylate]	0.11
CCN(Cc1cn(CCOCCOCCOC(=O)c2nc(C(F)(F)F)n3c2CN(C(=O)C[C@H](N)Cc2cc(F)c(F)cc2F)CC3)nn1)C[C@H](O)[C@@H](O)[C@H](O)[C@H](O)CO [Compound 45, 2-(2-(2-(4-((ethyl((2S,3R,4R,5R)-2,3,4,5,6-pentahydroxyhexyl)amino)methyl)-1H-1,2,3-triazol-1-yl)ethoxy)ethoxy)ethyl 7-((R)-3-amino-4-(2,4,5-trifluorophenyl)butanoyl)-3-(trifluoromethyl)-5,6,7,8-tetrahydroimidazo[1,5-a]pyrazine-1-carboxylate]	0.55
CCCCCCN(Cc1cn(CCOCCOCCNC(=O)c2nc(C(F)(F)F)n3c2CN(C(=O)C[C@H](N)Cc2cc(F)c(F)cc2F)CC3)nn1)CC(O)C(O)C(O)C(O)CO (stereo partly drawn) [Compound 47, 7-((R)-3-amino-4-(2,4,5-trifluorophenyl)butanoyl)-N-(2-(2-(2-(4-((hexyl(2,3,4,5,6-pentahydroxyhexyl)amino)methyl)-1H-1,2,3-triazol-1-yl)ethoxy)ethoxy)ethyl)-3-(trifluoromethyl)-5,6,7,8-tetrahydroimidazo[1,5-a]pyrazine-1-carboxamide]	2.2
N[C@@H](CC(=O)N1CCn2c(C(F)(F)F)nc(C(=O)OCCOCCOCCn3cc(CN(C[C@H](O)[C@@H](O)[C@H](O)[C@H](O)CO)C[C@H](O)[C@@H](O)[C@H](O)[C@H](O)CO)nn3)c2C1)Cc1cc(F)c(F)cc1F [Compound 48, 2-(2-(2-(4-((bis((2S,3R,4R,5R)-2,3,4,5,6-pentahydroxyhexyl)amino)methyl)-1H-1,2,3-triazol-1-yl)ethoxy)ethoxy)ethyl 7-((R)-3-amino-4-(2,4,5-trifluorophenyl)butanoyl)-3-(trifluoromethyl)-5,6,7,8-tetrahydroimidazo[1,5-a]pyrazine-1-carboxylate]	0.55
N[C@@H](CC(=O)N1CCn2c(C(F)(F)F)nc(C(=O)OCCN3CCOCC3)c2C1)Cc1cc(F)c(F)cc1F [Compound 49, (R)-4-(1-((2-morpholinoethoxy)carbonyl)-3-(trifluoromethyl)-5,6-dihydroimidazo[1,5-a]pyrazin-7(8H)-yl)-4-oxo-1-(2,4,5-trifluorophenyl)butan-2-aminium (2R,3S)-3-carboxy-2,3-dihydroxypropanoate]	0.82
N[C@@H](CC(=O)N1CCn2c(C(F)(F)F)nc(C(=O)NCCOCCN3CCOCC3)c2C1)Cc1cc(F)c(F)cc1F [Compound 50, (R)-4-(1-((2-(2-morpholinoethoxy)ethyl)carbamoyl)-3-(trifluoromethyl)-5,6-dihydroimidazo[1,5-a]pyrazin-7(8H)-yl)-4-oxo-1-(2,4,5-trifluorophenyl)butan-2-aminium (2R,3R)-3-carboxy-2,3-dihydroxypropanoate]	0.54
N[C@@H](CC(=O)N1CCn2c(C(F)(F)F)nc(C(=O)OCCCN3CCOCC3)c2C1)Cc1cc(F)c(F)cc1F [Compound 51, (R)-4-(1-((3-morpholinopropoxy)carbonyl)-3-(trifluoromethyl)-5,6-dihydroimidazo[1,5-a]pyrazin-7(8H)-yl)-4-oxo-1-(2,4,5-trifluorophenyl)butan-2-aminium (2R,3R)-3-carboxy-2,3-dihydroxypropanoate]	0.18
